{"source": "patent US10065965B2", "about": "“Imidazo[1,2-B][1,2,4]triazine derivatives as antiparasitic agents” (GlaxoSmithKline Intellectual Property Development Limited, priority 2015, dated 2018)", "type_in_all_cases": "cell-based", "key": {"Leishmania donovani": {"system": "Leishmania donovani", "test": "Assay 1 intramacrophage Leishmania donovani assay (potency readout)", "details": "amastigotes in PMA-treated THP-1 macrophages, 96 h, average number of amastigotes per cell, minimum threshold 4.3, read-out: pEC50 value against Leishmania donovani (converted)", "method_in_brief": "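THP-1 cells were differentiated with 20 nM PMA for 75 h, infected with amastigotes at MOI 5 for 16 h, then exposed to compound for 96 h in a ten-point 1:3 series from a 50 μM top concentration. Cells were fixed, DAPI/CellMask-stained and imaged by high-content microscopy. pEC50 was derived from amastigotes per cell and from THP-1 count.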"}, "[1]": {"test": "Assay 6 Trypanosoma cruzi intracellular assay, cytotoxicity against H9c2 cells", "details": "rat, H9C2 cardiomyocytes infected with T. cruzi trypomastigotes, total number of H9C2 cells, minimum threshold 4.3, read-out: cytotoxicity against H9c2 cells, pEC50 (converted)", "method": "Compounds were dispensed into black 384-well assay plates (Greiner) by acoustic dispensing (LabCyte ECHO). For potency determinations, eleven-point, one in three dilution curves were generated, with a top concentration of 50 μM. H9C2 rat cardiomyocytes cells were dispensed in T225 tissue culture flasks and after 4 hours they were infected during 18 hours with T. cruzi trypomastigotes in the same T225 tissue culture flasks at a multiplicity of infection of 1. Next, any remaining free trypomastigotes were washed away with PBS and the infected H9C2 cells were harvested by trypsinisation. The infected H9C2 cells were then plated into 384-well plates containing the compounds to be tested, at 2500 cells per well in DMEM media with 2% FBS, 1% Penicillin/Streptomocin, 2 mM L-Glutamine, 1 mM Na Pyruvate and 25 mM HEPES. After 72 h incubation at 37° C. in presence of 5% CO2, the plates were fixed and stained with 4% formaldehyde and 2 μM Draq5 for 3 hours at room temperature. The plates were imaged on a Perkin Elmer Opera high-content imaging system using a 20× air objective. Images were analysed using the Acapella building blocks system (Perkin Elmer). The image analysis algorithm first identified the H9C2 nuclei followed by demarcation of the cytoplasm and identification of intracellular amastigotes. This algorithm reported mean number of parasites per H9C2 cell, the percentage of infected H9C2 cells and the total number of H9C2 cells."}, "[2]": {"test": "Assay 2 Trypanosoma cruzi intracellular assay, cytotoxicity against VERO cells", "details": "African green monkey, Vero cells infected with T. cruzi trypomastigotes, total number of Vero cells, minimum threshold 4.3, read-out: cytotoxicity against VERO cells, pEC50 (converted)", "method": "Compounds were dispensed into black 384-well assay plates (Corning) by acoustic dispensing (LabCyte ECHO). For potency determinations, ten-point one in three dilution curves were generated, with a top concentration of 50 μM. Vero cells were infected overnight with T. cruzi trypomastigotes in T225 tissue culture flasks at a multiplicity of infection of 5. Next, any remaining free trypomastigotes were washed away with serum free MEM media and the infected Vero cells were harvested by trypsinisation. The infected Vero cells were then plated into 384-well plates containing the compounds to be tested, at 4000 cells per well in MEM media with 1% FCS. After 72 h incubation at 37° C. in presence of 5% CO2, the plates were fixed with 4% formaldehyde for 20 minutes at room temperature and stained with 5 μg/ml Hoechst 33342. The plates were imaged on a Perkin Elmer Operetta high-content imaging system using a 20× objective. Images were analysed using the Columbus system (Perkin Elmer). The image analysis algorithm first identified the Vero nuclei followed by demarcation of the cytoplasm and identification of intracellular amastigotes. This algorithm reported mean number of parasites per Vero cell and total number of Vero cells."}, "[3]": {"test": "Assay 1 intramacrophage Leishmania donovani assay, THP-1 cell count (cytotoxicity readout)", "details": "human, minimum threshold 4.3, read-out: cytotoxicity against THP-1 cells, pEC50 value (converted)", "method": "The intramacrophage Leishmania assay was performed using a modified version of the method described in De Rycker et al. (Antimicrob Agents Chemother. 2013 July; 57(7):2913-22. Comparison of a high-throughput high-content intracellular Leishmania donovani assay with an axenic amastigote assay. De Rycker M, Hallyburton I, Thomas J, Campbell L, Wyllie S, Joshi D, Cameron S, Gilbert I H, Wyatt P G, Frearson J A, Fairlamb A H, Gray D W.). Procedure: 350 nl of compound was pre-dispensed into 384 well sterile intermediary plates. For single point screening, amphotericin B was added to all wells of column 24 as a positive control (final concentration 2 μM) and DMSO to column 23. For potency determinations, ten-point, one in three dilution curves were created with the highest concentration being 50 μM and on each plate a control curve of amphotericin B was included. Controls were as follows: columns 11 and 12: DMSO, columns 23 and 24: amphotericin B (final concentration 2 μM). To the intermediary plates, 35 μl of THP-1 media was added and plates were shaken for >5 min to ensure complete mixing. THP-1 cells (8,000 per well, 50 μl) were plated into black clear-bottom 384 well plates (Corning) in presence of 20 nM PMA. After 20 min at RT, the plates were incubated at 37° C. under 5% CO2 in a humidified incubator for 75 h. The cells were then washed with […] sterile phosphate buffered saline (PBS) supplemented with 1 mM CaCl2, 0.5 mM MgCl2, 0.1% (w/v) bovine serum albumin (PBS-A) and amastigotes were added to all wells at a multiplicity of infection of 5 (40,000 amastigotes per well). After 40 min at RT, plates were returned to the incubator. Amastigotes were incubated in the presence of THP-1 macrophages for 16 h. Any remaining extracellular amastigotes were subsequently removed with an overflow wash of 1 mL PBS-A per well (wash buffer is being aspirated from the top of the well as it is being dispensed) followed by addition of 25 μl of the compound pre-dilutions using a Fluidx Ipette-pro pipetting station. The final dilution of each compound was 200-fold. Plates were incubated for 96 h and then washed (250 μl PBS-A) and fixed (4% (v/v) formaldehyde-PBS, 30 min, RT). After fixation, the wells were washed with 250 μl PBS, stained (10 μg/mL DAPI, 0.4 μg mL-1 HCS Cellmask Deep Red in PBS+0.1% (v/v) Triton X-100, 30 min, RT) and washed with 250 μl PBS. Finally, PBS+0.05% (v/v) thimerosal was added to the wells, the plates were sealed and imaged on a high-content microscope (GE IN Cell 2000) using a 10× objective. Image analysis was carried out with GE IN Cell Analyzer 1000 Workstation using the “Multi Target Analysis” module. Settings for segmentation were as follows: nuclei: minimum area: 142.384 μm2, sensitivity: 81, method: top-hat; cells: characteristic area: 2500 μm2, sensitivity: 60, method: multiscale top-hat; organelles (amastigotes): granule size 1-3, 3 scales, sensitivity: 90, detection in entire cell. For each well, i) THP-1 cell count (cytotoxicity readout) and ii) average number of amastigotes per cell (potency readout) were calculated, both in terms of pEC50 values."}}}
{"smiles": "O=C(Nc1ccc(F)c(-c2cn3nc(N4CCOCC4)cnc3n2)c1)N1CCCC1", "note": "[Example 1, N-(4-fluoro-3-(2-morpholinoimidazo[1,2-b][1,2,4]triazin-6-yl)phenyl)pyrrolidine-1-carboxamide]", "values": [{"measurement": "EC50", "setting": "Leishmania donovani", "value": 0.631, "unit": "µM"}, {"measurement": "EC50 at 72 h", "setting": "[1]", "value": "> 50.1", "unit": "µM"}, {"measurement": "EC50 at 72 h", "setting": "[2]", "value": "> 50.1", "unit": "µM"}, {"measurement": "EC50 at 96 h", "setting": "[3]", "value": "> 50.1", "unit": "µM"}]}
